# Measured values taken from patent US20110144000A1, “ANTIMICROBIAL POLYPEPTIDE” (priority 2007, published 2011).
# Assays:
# [1] = test system: bacteria; details: literature (Yang et al., 2003; Cole et al., 2001); cited from earlier work
# [2] = test system: Streptococcus pyogenes (strain AP1); assay: Viable count bactericidal assay; type: cell-based; details: for antibacterial activity compared with GCP-2/CXCL6 holopeptide: fragment comparison, FIG. 1b
# Excerpt: (§1) The GAS strain AP1 (40/58) of M1 serotype was from the World Health Organization Collaborating Centre for Reference and Research on Streptococci, Prague, Czech Republic. Streptococcus pyogenes (strain AP1) and Streptococcus Dysgalactiae, sub species equisimilis (strain G41), Staphylococcus aureus (strain 5120), Pseudomonas aeruginosa (strain 1553 initially isolated from a chronic venous ulcer) and Escherichia coli (strain 37.4) were routinely grown in Todd-Hewitt (TH) liquid medium in 5% CO2 and at 37° C. The bacterial strains were obtained from Division of Infection Medicine, Department of Clinical Sciences, Lund University, BMC B14, Tornavagen 10, SE-221 84 Lund, Sweden.
# (§2) Bacteria were cultivated to mid-log phase (OD620 0.4) in Todd-Hewitt broth, washed, and diluted in incubation buffer (10 mM Tris-Hcl pH 7.4 containing 5 mM glucose). Pseudomonas aeruginosa was grown for 18 hours at 37° C. 50 μl of bacteria (1×10^6 colony forming units (cfu)/mL) were incubated together with various concentrations of peptide or buffer alone for 1 h at 37° C. In order to quantify bactericidal activity, serial dilutions of the incubation mixtures were plated on TH agar. The number of resulting cfu:s were related to bacteria incubated with buffer alone and the results expressed as % killing.
# (§3) GCP-2/CXCL6 (SEQ ID NO:3) as well as parts of CXCL6, i.r., SEQ ID NO:1 and 2 being part of CXCL6 was examined for antibacterial activity against a panel of bacteria relevant during infections of dermis and mucosal surfaces. The bacteria included Gram-positive (Group A streptococci, group G streptococci, and S. aureus) and G-negative (E. coli and P. aeruginosa) bacteria (FIG. 1 a). […] To delineate what regions of the GCP-2/CXCL6 molecule that are responsible for antibacterial activity, a 50 amino acid fragment of the NH2-terminal region (GPV-50) of GCP-2/CXCL6 and a 19 amino acid fragment (APF-19) of the COOH-terminal region (a region with a putative amphiphatic alpha-helical structure), was compared with the GCP-2/CXCL6 holopeptide. Antibacterial activity was investigated against S. pyogenes and E. coli.
# [3] = test system: Escherichia coli (strain 37.4); assay: Viable count bactericidal assay; type: cell-based; details: for antibacterial activity compared with GCP-2/CXCL6 holopeptide: fragment comparison, FIG. 1b
# Excerpt: as §1, §2, §3
# [4] = test system: Neisserria gonorrhoea; assay: Viable count bactericidal assay against N. gonorrhoeae; type: cell-based, Neisseria gonorrhoeae; details: mean, ±SEM
# Method: as §2
# The anti-bacterial activity of the GCP-2/CXCL6 (SEQ ID NO:3) against the gram-negative bacteria Neisserria gonorrhoea was determined using the previously described experimental set-up (See Example 3).
# [5] = test system: Enterococcus faecalis; assay: Viable count bactericidal assay against E. faecalis; type: cell-based; details: mean, ±SEM
# Method: as §2
# The anti-bacterial activity of the GCP-2/CXCL6 (SEQ ID NO:3) against the gram-positive, facultatively anaerobic bacteria Enterococcus faecalis was determined using the previously described experimental set-up (See Example 3).
# [6] = test system: Streptococcus Dysgalactiae, sub species equisimilis (strain G41); assay: Viable count bactericidal assay; type: cell-based; details: 1 h at 37° C., at below micromolar concentrations
# Excerpt: as §1, §2, §3
# [7] = test system: Pseudomonas aeruginosa (strain 1553); assay: Viable count bactericidal assay; type: cell-based; details: 1 h at 37° C., at below micromolar concentrations
# Excerpt: as §1, §2, §3
# [8] = test system: Staphylococcus aureus (strain 5120); assay: Viable count bactericidal assay; type: cell-based; details: 1 h at 37° C., at below micromolar concentrations
# Excerpt: as §1, §2, §3
# [9] = viable count, 1 h at 37° C., at below micromolar concentrations
substance,measurement,setting,value
"CXCL5: related ELR-positive CXC chemokine, closest sequence homology to CXCL6 [reference compound]",activity against bacteria,[1],no activity against bacteria
"APFLKKVIQKILDSGNKKN (CXCL6 peptide) [APF-19, 19 amino acid fragment of the COOH-terminal region of GCP-2/CXCL6]",antibacterial activity compared with GCP-2/CXCL6 holopeptide,[2],less antibacterial than the holopeptide
same,antibacterial activity compared with GCP-2/CXCL6 holopeptide,[3],less antibacterial than the holopeptide
GCP-2/CXCL6: Recombinant human chemokine GCP-2/CXCL6 (SEQ ID NO:3) from PeproTech,MBC50,[4],"0.3 ± 0.1 μM (mean, ±SEM)"
same,MBC90,[4],0.8 ± 0.1 µM
same,MBC50,[5],"0.46 ± 0.03 μM (mean, ±SEM)"
same,MBC90,[5],0.90 ± 0.00 µM
same,bactericidal effect,[6],bactericidal effect
same,bactericidal effect,[2]; [9],bactericidal effect
same,bactericidal effect,[3]; [9],bactericidal effect
same,bactericidal effect,[7],bactericidal effect
same,bactericidal effect,[8],bactericidal effect
same,activity against bacteria,[1],no activity
"GPVSAVLTELRCTCLRVTLRVNPKTIGKLQVFPAGPQCSKVEVVASLKNG (CXCL6 peptide) [GPV-50, 50 amino acid fragment of the NH2-terminal region of GCP-2/CXCL6]",antibacterial activity compared with GCP-2/CXCL6 holopeptide,[2],higher antibacterial activity than APF-19
same,antibacterial activity compared with GCP-2/CXCL6 holopeptide,[3],higher antibacterial activity than APF-19
